Several values for one entry are separate records, joined by “and”; a condition that tells them apart may be missing. Identical values can stand only once.
What was measured:
[1] = test system: Ectromelia Virus Moscow strain (ECTV-MOS strain); set-up: species or system Balb/c mice; conditions: mouse, in vivo, ip
[2] = female, Balb/c, mouse, in vivo, ip
[3] = test system: murine hepatitis coronavirus A59 strain (MHV-A59); format: cell-based
[4] = test system: Enterovirus 71 Hn2 strain (EV71-Hn2); format: cell-based

Structure (SMILES): Nc1ccn(C[C@@H](CO)OCP(=O)(O)O)c(=O)n1 [Cidofovir]
- Case-Fatality Rate (%) [1]: 6.67% and 13.33%
- Death Number [1]: 1 and 2
- Survival Number [1]: 14 and 13
- Survival Rate (%) [1]: 86.67% and 93.33%
- Case-Fatality Rate (%) [2]: 0%
- Death Number [2]: 0
- Survival Number [2]: 15
- Survival Rate (%) [2]: 100%
- effect on the titers of coronavirus (MHV) [3]: no effects
- effect on the titers of enterovirus (EV71) [4]: no effects
